Common to all, as to assay type: physicochemical
Data set [1] can be described thus: Dynamic vapor sorption / hygroscopicity. The following applies: for hygroscopicity: DVS, class by mass gain at 85% r.h.; for solid form after DVS cycle: after the DVS humidity cycle. On the procedure: Projekt Messtechnik (now ProUmid) SPS11-100n. The sample was placed on an aluminum holder on top of a microbalance and allowed to equilibrate at 50% r.h. before starting one of the following pre-defined humidity programs (1 cycle): • hold 2 h at 50% r.h., • decrease humidity −5% r.h. h^−1 for 10 h (i.e., from 50% r.h. to 0% r.h.), • hold 5 h at […]., • increase humidity +5% r.h. h^−1 for 19 h (i.e., from 0% r.h. to 95% r.h.), • hold 5 h at 95% r.h., • decrease humidity −5% r.h. h^−1 for 9 h (i.e., from 95% r.h. to 50% r.h.), • hold 2 h at 50% r.h. or • hold 2 h at 50% r.h., • increase humidity +5% r.h. h^−1 for 9 h (i.e., from 50% r.h. to 95% r.h.), • hold 5 h at 95% r.h., • decrease humidity −5% r.h. h^−1 for 19 h (i.e., from 95% r.h. to 0% r.h.), • hold 5 h at 0% r.h., • increase humidity +5% r.h. h^−1 for 10 h (i.e., from 0% r.h. to 50% r.h.), • hold 2 h at 50% r.h.
The hygroscopicity was classified based on the mass gain at 85% r.h. relative to the initial mass as follows: deliquescent (sufficient water adsorbed to form a liquid), very hygroscopic (mass increase of […]), hygroscopic (mass increase of <15% but ≥2%), slightly hygroscopic (mass increase of <2% but ≥0.2%), or non-hygroscopic (mass increase of <0.2%).

Data set [2] can be described thus: Solubility determination (15 minutes at room temperature, HPLC). On the procedure:
1 mL of buffer or of ultrapure (resistivity≥18.2 Mf cm) water was added to a pre-weighed, approximately twenty milligram aliquot of the substance to be measured. The resulting suspensions were stirred for 15 minutes at room temperature with magnetic stirrers. The suspensions were centrifuged and filtered through Millipore 0.2 μm PVDF filters, and the concentration of each filtrate (i.e., saturated solution) was determined using a general HPLC method. The pH of each saturated solution was measured with a Metrohm 713 pH meter.
To assess whether Form K and Form K′ are likely to have different bioavailabilities, comparative solubility measurements were carried out in physiologically relevant media. Samples of Form K and Form K′ were separately equilibrated in pure water, pH 2.0 buffer, and pH 6.8 buffer for fifteen minutes, and the solids were then separated from the solvents. The concentration of the compound in the filtrate (i.e., the solubility) was assessed in each case, and the solid residues were also monitored by powder X-ray diffraction. All six solid residues correspond to Form K, confirming that Form K′ rapidly incorporates water into its lattice when suspended in an aqueous environment even when the solubility is low. While the solubilities in pure water and at pH 6.8 were below the limit of quantitation of 0.0001 mg/mL, the solubilities at pH 2.0 could be measured. […] Thus, the bioavailabilities of the two forms are expected to be similar, and precise control of the water content (and, thereby, the solid form) is presumably not necessary from a scientific point of view. Given that the critical water activity is in the range aH2O=0.11-0.17, the hydrated Form K is likely to be the more easily stabilized of the two forms under ambient laboratory conditions.

A short description of data set [3]: Storage at controlled relative humidities (Form K / Form K′). The text has this: It was noticed that after Form K was dried, the XRPD peaks of Form K shifted to a higher value and the resulting XRPD pattern is called Form K′. To further understand the relationships between the two forms, free base Form K and Form K′ were placed on XRPD sample holders and stored in a closed Jars with saturated salt solutions for RH controls at ambient temperature, respectively. […] The XRPD diffractograms of the samples after 2-day storage are presented in FIG. 132 and FIG. 133, respectively. […] Since the peaks of Form K shifted to higher 2-theta value as Form K loses water molecules to Form K′, Form K and Form K′ are on a continuum.

The nature of data set [4]: Solid state stability under accelerated storage conditions. On the procedure:
Form A was not isolated directly as a wet cake but formed only upon drying of Form E in polymorphism studies. […] Small quantities of Form A were generated by dissolving a crude Compound 1 in MEK at high temperature, followed by fast cooling to room temperature, filtration and drying. DSC and TGA data were obtained for samples of Form A and following storage for 1 week at 60° C. and 60° C./75% RH. […] TGA analysis confirmed that this broad endotherm was most likely due to moisture uptake under the accelerated storage conditions. Most of the weight loss of 0.82% in this sample occurred in a single step at less than 75° C. By contrast, weigh loss was a two-step process at the initial time point. […] The residual solvent initially present in the sample was lost upon storage of the sample at 60° C. (0.13% weight loss between 25 to 150° C.).
Form B could be obtained from a process involving methyl acetate. […] HPLC traces were taken of the samples of Form B and following storage for 2 week at 60° C. and 60° C./75% RH. […] Several small degradation products were seen to grow especially in the sample stored at 60° C. Chiral instability was also observed in the sample stored at 60° C./75% RH.
Physical stability: Visually, all samples of Form K were white colored powder with no apparent change in color in the samples stored under accelerated conditions (40° C., 40° C./75% RH, 60° C., 60° C./75% RH and sample stored in light chamber in clear vials exposed to light and covered in aluminum foil) for 14 d relative to the sample stored refrigerated and under ambient conditions.
Solid state chemical stability: HPLC analysis were performed on Form K samples stored under the accelerated stability conditions. […] Based on the HPLC analysis data, there is a measurable but small change in the chemical stability of Form K under the accelerated conditions of temperature, humidity and exposure to light over the 14 d period.
Solid state chiral stability: Chiral stability of Form K samples stored under accelerated stability conditions was tested. There was ˜2.9% of the R-enantiomer (97.1 area % of the active S-isomer) in the initial sample. […]
The chiral purity (area % of S-isomer) remained […] under the accelerated stability conditions.

A short description of data set [5]: Critical water activity of hydrochloride Form L and Form N. The following applies: for form after slurry (XRPD): water/acetone. On the procedure:
Determination of critical water activity for Form L and Form N: 50 mg of Form L was suspended in 0.5-1 ml of water/acetone solution with specific water activity. The solutions were stirred at RT or 60′° C. Form conversion was monitored by XRPD over 2 weeks.

Data set [6] is described as follows: Solubility of polymorphic forms in physiologically relevant media and final pH. From the text:
Solubility data of the several polymorphic forms of Compound 1 in physiologically relevant media and the final pH of these solutions are summarized in the following tables.

Where [7] appears, read: relative humidity from about 5% to about 95%.

Molecules are shown by their SMILES. “And” between values parts separate entries of the source, which are not always exact repeats. Equal values may be shown once.

For `Cl.N#Cc1ccc(N2CCN(Cc3ccc(COc4cccc5c4CN(C4CCC(=O)NC4=O)C5=O)cc3)CC2)c(F)c1` (stereo not drawn), in data set [1], the hygroscopicity entry is recorded as “hygroscopic (hygroscopic (mass increase of <15% but ≥2%))” and the “solid form after DVS cycle” value was “remains as Form A”. Moreover, the DVS mass increase result in data set [1] (setting [7]) is “about 11.7%”. In data set [2] (water, sample changed (solid-form transformation or gel), value may not represent the initial form), the “aqueous solubility for the free base component” value is 4.1 mg/mL and 7.2 mM.
As usually defined, the solubility is the concentration that dissolves in the medium under given conditions. High values mean much dissolved substance, low ones little dissolved substance. Take `N#Cc1ccc(N2CCN(Cc3ccc(COc4cccc5c4CN([C@H]4CCC(=O)NC4=O)C5=O)cc3)CC2)c(F)c1` [Form K′ of a free base of Compound 1]: the “form conversion on storage (XRPD)” value in data set [3] (22% RH or above, ambient temperature) was “converts to K”. Further, in data set [3] (stored at 17% r.h. and r.t. for 2.5 d), the “PXRD result after storage” value is on record as “Form K”. Besides, the “solubility at pH 2.0” value in data set [2] (pH 2.0 buffer, fifteen minutes) was 0.93 mg/mL. Further, the “solid residue after solubility measurement (powder X-ray diffraction)” value in data set [2] (pure water, pH 2.0 buffer and pH 6.8 buffer, fifteen minutes) is “Form K”.
Consider `N#Cc1ccc(N2CCN(Cc3ccc(COc4cccc5c4CN([C@H]4CCC(=O)NC4=O)C5=O)cc3)CC2)c(F)c1` [Form D of a free base of Compound 1], for which, in data set [1] (listed as Form D), the hygroscopicity entry is on record as “slightly hygroscopic (slightly hygroscopic (mass increase of <2% but ≥0.2%))”; the “solid form after DVS cycle” value was “a mixture of Form B and Form E”. For the same compound, the DVS mass increase entry in data set [1] (relative humidity from about 5% to about 95%, listed as Form D) is “about 3.0%”.
Consider `N#Cc1ccc(N2CCN(Cc3ccc(COc4cccc5c4CN([C@H]4CCC(=O)NC4=O)C5=O)cc3)CC2)c(F)c1.O=S(=O)(O)c1ccccc1` [Form B of a besylate salt of Compound 1], for which, in data set [1], the hygroscopicity result is “slightly hygroscopic (slightly hygroscopic (mass increase of <2% but ≥0.2%))” and the “solid form after DVS cycle” value is listed as “remains as Form B”. Further, the DVS mass increase entry in data set [1] (setting [7]) is listed as “about 1.75%”. In data set [4] (40° C., 40° C./75% RH, 60° C., 60° C./75% RH, and under light for 14 days), the “physical stability (XRPD)” value is recorded as “physically stable”. In data set [4] (accelerated stability conditions, 14 days), the “chiral purity (area % of S-isomer)” value was “above 99%”. Further, the “Chemical purity (HPLC) on storage” value in data set [4] (accelerated stability conditions, 14 days, peak grows with temperature and humidity) was “showed degradation peak”.
As for `Cl.N#Cc1ccc(N2CCN(Cc3ccc(COc4cccc5c4CN([C@H]4CCC(=O)NC4=O)C5=O)cc3)CC2)c(F)c1`, the hygroscopicity entry in data set [1] was “slightly hygroscopic (slightly hygroscopic (mass increase of <2% but ≥0.2%))”. In addition, the “solid form after DVS cycle” value in data set [1] was “remains as Form L”. Besides, the DVS mass increase entry in data set [1] (relative humidity from about 0% to about 95%) is “about 0.6%”. In addition, the entries for the “critical water activity (Form L to Form N)” value in data set [5] (60° C.) and in data set [5] (RT) were 0.4-0.5 and 0.2-0.4, respectively. In addition, the “form after slurry (XRPD)” value in data set [5] (Aw 0.1, RT) is recorded as “Form L”; in data set [5] (Aw 0.2, 60° C.), “Form L”; in data set [5] (Aw 0.2, RT) it was “Form L”; in data set [5] (Aw 0.3, 60° C.), “Form L”; in data set [5] (Aw 0.3, RT), “Form AA”; in data set [5] (Aw 0.4, 60° C.), “Form L”. Also, the “form after slurry (XRPD)” value in data set [5] (Aw 0.4, RT) is “Form N”; in data set [5] (Aw 0.5, 60° C.), “Form N”; in data set [5] (Aw 0.5, RT) it was “Form N”.
The term Solubility denotes the dissolved amount per volume that the medium holds. Take `Cl.N#Cc1ccc(N2CCN(Cc3ccc(COc4cccc5c4CN([C@H]4CCC(=O)NC4=O)C5=O)cc3)CC2)c(F)c1` [HC1 Salt]: the Solubility in data set [6] (FaSSIF) was 1 µg/mL; in data set [6] (FeSSiF), 94 µg/mL; in data set [6] (SGF with pepsin), 295 µg/mL; in data set [6] (pH 1 buffer HC1/NaC1), 71 µg/mL; in data set [6] (pH 3 buffer (phosphate)), 149 µg/mL; in data set [6] (pH 4 buffer (acetate)), 124 µg/mL. Also, the Solubility in data set [6] (pH 5 buffer (acetate)) was determined as 17 µg/mL. In addition, the “Final pH” value is given as 5.96 in data set [6] (solubility sample in FaSSIF); 4.99 in data set [6] (solubility sample in FeSSiF); 1.28 in data set [6] (solubility sample in SGF with pepsin); 1.05 in data set [6] (solubility sample in pH 1 buffer HC1/NaC1); 3.05 in data set [6] (solubility sample in pH 3 buffer (phosphate)); 4.00 in data set [6] (solubility sample in pH 4 buffer (acetate)). Moreover, in data set [6] (solubility sample in pH 5 buffer (acetate)), the “Final pH” value is 4.83.
